# Source: patent US8163909B2, “Substituted hydroxyethyl amine compounds as beta-secretase modulators and methods of use” (Amgen Inc., priority 2007, dated 2012)
# Like-named read-outs stand apart in the source and are kept apart here.
# How the values were obtained:
# CYP2D6 = CYP2D6 (Homo sapiens, UniProt P10635); experiment: CYP2D6 inhibition assay (bufuralol, pooled human liver microsomes)
# [1] = Microsomal stability assay, human liver microsomes;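 note: pooled human liver microsomes at 0.25 mg/mL with 1 µM compound and NADPH at 37 °C, pH 7.4, for 30 min, unchanged parent quantified by LC-MS/MS against the 0 min sample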
# [2] = biological target: Beta Secretase enzyme (BACE) (Homo sapiens, UniProt P56817); experiment: In vitro enzymatic BACE FRET (fluorescence resonance energy transfer) assay; type: biochemical;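 note: fluorescence read after 1 h with 50 nM quenched peptide substrate spanning the BACE cleavage site, in pH 4.2 acetate buffer containing 10% DMSO and nonionic detergent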
# Chain of Beta Secretase enzyme (BACE) (P56817 46-501): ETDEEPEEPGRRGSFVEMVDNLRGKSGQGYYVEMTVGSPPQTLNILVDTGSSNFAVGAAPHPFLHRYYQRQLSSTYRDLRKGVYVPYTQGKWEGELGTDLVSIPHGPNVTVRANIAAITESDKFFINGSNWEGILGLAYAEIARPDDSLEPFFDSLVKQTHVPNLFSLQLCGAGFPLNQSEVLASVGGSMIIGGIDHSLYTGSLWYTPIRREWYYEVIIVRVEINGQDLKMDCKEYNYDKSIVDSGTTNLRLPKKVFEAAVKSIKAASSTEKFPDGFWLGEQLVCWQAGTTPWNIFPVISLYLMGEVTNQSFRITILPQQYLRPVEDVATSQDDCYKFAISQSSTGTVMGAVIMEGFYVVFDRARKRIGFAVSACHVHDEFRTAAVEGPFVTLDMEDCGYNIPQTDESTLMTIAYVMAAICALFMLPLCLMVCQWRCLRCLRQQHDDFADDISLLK
# CYP3A4 (CYP3A) = CYP3A4 (CYP3A) (Homo sapiens, UniProt P08684); experiment: in vitro; settings: microsomes, pH 7.4;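 note: inhibition of CYP3A-mediated 1-hydroxymidazolam formation after 10 min incubation with NADPH, quantified by HPLC MS relative to metabolite produced without test compound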
# Chain of CYP3A4 (CYP3A) (P08684 2-503): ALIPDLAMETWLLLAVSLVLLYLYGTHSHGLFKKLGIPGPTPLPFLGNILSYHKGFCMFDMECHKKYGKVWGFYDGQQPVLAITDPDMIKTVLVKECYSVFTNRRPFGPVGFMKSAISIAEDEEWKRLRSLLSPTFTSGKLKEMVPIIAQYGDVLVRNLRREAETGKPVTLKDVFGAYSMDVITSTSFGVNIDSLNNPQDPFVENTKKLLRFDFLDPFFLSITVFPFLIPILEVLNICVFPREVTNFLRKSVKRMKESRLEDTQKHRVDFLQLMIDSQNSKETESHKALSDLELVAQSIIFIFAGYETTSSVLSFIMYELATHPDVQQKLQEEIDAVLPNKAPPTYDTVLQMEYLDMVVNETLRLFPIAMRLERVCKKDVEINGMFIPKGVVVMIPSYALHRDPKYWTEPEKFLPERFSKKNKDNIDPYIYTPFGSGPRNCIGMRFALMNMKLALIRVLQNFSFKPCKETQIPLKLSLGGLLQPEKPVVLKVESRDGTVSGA
# [3] = system: Aβ40 in conditioned medium of cells stably expressing Amyloid Precursor Protein (APP); experiment: In vitro BACE cell-based assay (Aβ40 in conditioned medium, sandwich ELISA); settings: Homo sapiens;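 note: compounds added as a dilution series, secreted peptide quantified by europium time-resolved fluorescence readout, potency fitted from percent of control versus compound concentration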
# Abeta peptide = experiment: In vivo inhibition of beta-secretase (reduction of Abeta peptide in brain and cerebrospinal fluid); set-up: species or system rat; settings: Rattus norvegicus, po, 4 h;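 note: abeta peptide quantified by sandwich ELISA with electrochemiluminescence readout in rat brain supernatant or CSF, relative to vehicle-dosed control animals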
# [4] = Microsomal stability assay, rat liver microsomes;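 note: rat liver microsomes (0.25 mg/mL) with about 1 µM compound plus 1 mM NADPH, pH 7.4, 37 °C for 30 min, parent left measured by LC-MS/MS against 0 min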
# [5] = 2D6 IC50 (uM), CYP enzyme inhibition
# [6] = BACE enzyme assay, IC50's in uM, read-out: BACE1 FRET assay
# [7] = HEK293, HEK cell-based assay, IC50's in uM, read-out: HEK cell assay
# [8] = rat brain, orally administered at 30 mg/kg dose, measured after 4 hours, read-out: percent reduction of abeta peptide in the brain of the rat
# [9] = rat cerebrospinal fluid, orally administered at 30 mg/kg dose, measured after 4 hours, read-out: percent reduction of abeta peptide in the cerebrospinal fluid of the rat
# [10] = 2D6 IC50, CYP enzyme inhibition
# [11] = HEK293, cell-based assay, HEK cells, IC50's in uM, read-out: HEK cell assay
# [12] = read-out: BACE1 FRET assay (IC50)
# [13] = HEK293, HEK cells, read-out: HEK cell assay (IC50)
# [14] = BACE enzyme assay, read-out: BACE1 FRET assay
# [15] = HEK293, HEK cells, read-out: HEK cell assay
# Chain of CYP2D6 (P10635 whole entry): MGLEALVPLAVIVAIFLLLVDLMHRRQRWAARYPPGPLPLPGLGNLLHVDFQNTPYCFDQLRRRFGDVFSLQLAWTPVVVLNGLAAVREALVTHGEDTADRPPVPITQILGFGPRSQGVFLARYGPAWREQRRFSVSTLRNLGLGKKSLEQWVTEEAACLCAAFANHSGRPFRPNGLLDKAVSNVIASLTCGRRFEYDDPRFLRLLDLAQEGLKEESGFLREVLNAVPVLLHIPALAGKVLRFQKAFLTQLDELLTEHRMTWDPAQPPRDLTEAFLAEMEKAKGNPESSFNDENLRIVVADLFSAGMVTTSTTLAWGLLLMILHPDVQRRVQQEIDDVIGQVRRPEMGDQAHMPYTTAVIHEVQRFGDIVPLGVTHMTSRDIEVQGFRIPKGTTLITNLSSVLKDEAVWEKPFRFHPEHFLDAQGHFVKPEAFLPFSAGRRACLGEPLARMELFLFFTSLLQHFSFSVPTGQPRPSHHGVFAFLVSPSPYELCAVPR
Compound,IC50 (CYP2D6; [5]),HLM ([1]; human liver microsomal data),"IC50 [2, 6]",IC50 (CYP3A4 (CYP3A)),RLM ([4]; rat liver microsomal data),inhibition in vivo at 30 mg/kg (Abeta peptide; [9]),also measured
C#Cc1cccc(C[C@H](NC(=O)COC)[C@H](O)CN[C@H]2CC3(CCC3)Oc3ncc(CC(C)(F)F)cc32)c1 [Example 829],2.3 µM,40 µL/min/mg,0.007 µM,200 nM,23 µL/min/mg,,"IC50 [3, 7]: 0.016 µM; inhibition in vivo at 30 mg/kg (Abeta peptide; [8]): ≥ 30%"
C#Cc1cccc(C[C@H](NC(=O)COC)[C@H](O)CN[C@H]2CC3(CCC3)Oc3ncc(CC(C)C)cc32)c1 [Example 756],1.4 µM,53 µL/min/mg,0.005 µM,,49 µL/min/mg,10 to 80%,"IC50 [3, 7]: 0.009 µM"
"C#Cc1cccc(C[C@H](NC(=O)COCC)[C@H](O)CN[C@H]2CC3(CCC3)Oc3ncc(CC(C)(C)C)cc32)c1 [Example 870, N-((1S,2R)-3-(((4′S)-6′-(2,2-dimethylpropyl)-3′,4′-dihydrospiro[cyclobutane-1,2′-pyrano[2,3-b]pyridin]-4′-yl)amino)-1-(3-ethynylbenzyl)-2-hydroxypropyl)-2-ethoxyacetamide]",,,0.004 µM,,,≥ 50%,"IC50 (CYP2D6; [10]): 1.6 µM; IC50 [3, 11]: 0.011 µM"
CC(C)C(=O)N[C@@H](Cc1cc(F)cc(-c2nccs2)c1)[C@H](O)CN[C@H]1CC2(CCC2)Oc2ncc(CC(C)(C)C)cc21 [Example 883],,54 µL/min/mg,0.021 µM,100 nM,52 µL/min/mg,10 to 80%,"IC50 [3, 11]: 0.021 µM"
CC(C)Cc1cnc2c(c1)[C@@H](NC[C@@H](O)[C@H](Cc1ccc3c(c1)OCO3)NC(=O)[C@@H](C)F)CC1(CCC1)O2 [Example 600],,,,,,10 to 80%,"IC50 [2, 12]: 0.03 µM; IC50 [3, 13]: 0.035 µM; inhibition in vivo at 30 mg/kg (Abeta peptide; [8]): 5 to 80%"
COCC(=O)N[C@@H](Cc1cc(F)cc(F)c1)[C@H](O)CN[C@H]1CC2(CCC2)Oc2c1cc(CC(C)(C)C)nc2-c1cncn1C [Example 597],,,,,,10 to 80%,"IC50 (CYP2D6; 2D6 IC50, CYP2D6 inhibition): 2.8 µM; HLM ([1]; human liver microsomes): 22 µL/min/mg; IC50 [2, 12]: 0.034 µM; IC50 [3, 13]: 0.011 µM; RLM ([4]; rat liver microsomes): 35 µL/min/mg"
C#Cc1cc(C[C@H](NC(=O)C(OC)OC)[C@H](O)CN[C@H]2CC3(CCC3)Oc3ncc(CC(C)(C)C)cc32)ccc1F [Example 861],,28 µL/min/mg,0.008 µM,,64 µL/min/mg,≥ 50%,"IC50 (CYP2D6; [10]): 2.1 µM; IC50 [3, 11]: 0.018 µM"
CC(C)(C)Cc1cnc2c(c1)[C@@H](NC[C@@H](O)[C@H](Cc1cc(F)cc(-c3nccs3)c1)NC(=O)CF)CC1(CCC1)O2 [Example 878],,72 µL/min/mg,0.004 µM,200 nM,65 µL/min/mg,,"IC50 [3, 11]: 0.022 µM; inhibition in vivo at 30 mg/kg (Abeta peptide; read-out: percent reduction of abeta peptide in the brain of the rat): 5 to 80%"
COCC(=O)N[C@@H](Cc1cc(-c2nccs2)ccc1F)[C@H](O)CN[C@H]1CC2(CCC2)Oc2ncc(CC(C)(C)C)cc21 [Example 900],,,,≥ 27000 nM,,10 to 80%,IC50 (CYP2D6; [10]): ≥ 27 µM
C#Cc1cc(F)cc(C[C@H](NC(=O)[C@@H](C)OC)[C@H](O)CN[C@H]2CC3(CCC3)Oc3ncc(CC(C)C)cc32)c1 [Example 835],2.1 µM,48 µL/min/mg,0.006 µM,,109 µL/min/mg,,"IC50 [3, 7]: 0.026 µM; inhibition in vivo at 30 mg/kg (Abeta peptide; [8]): 5 to 80%"
C#Cc1cccc(C[C@H](NC(=O)CC)[C@H](O)CN[C@H]2CC3(CCC3)Oc3ncc(CC(C)(C)C)cc32)c1 [Example 873],,35 µL/min/mg,0.003 µM,,29 µL/min/mg,≥ 50%,"IC50 (CYP2D6; [10]): 0.8 µM; IC50 [3, 11]: 0.007 µM"
"COCC(=O)N[C@@H](Cc1ccc(F)c(-c2nccs2)c1)[C@H](O)CN[C@H]1CC2(CCC2)Oc2ncc(CC(C)(C)C)cc21 [Example 650, N-((1S,2R)-3-(((4′S)-6′-(2,2-dimethylpropyl)-3′,4′-dihydrospiro[cyclobutane-1,2′-pyrano[2,3-b]pyridin]-4′-yl)amino)-1-(4-fluoro-3-(1,3-thiazol-2-yl)benzyl)-2-hydroxypropyl)-2-methoxyacetamide]",,,,,,,inhibition in vivo at 30 mg/kg (Abeta peptide; [8]): 5 to 80%
CO[C@H](C)C(=O)N[C@@H](Cc1cccc(C#N)c1)[C@H](O)CN[C@H]1CC2(CCC2)Oc2c(-c3ccncc3)cc(CC(C)(C)C)cc21 [Example 638],,,,,,10 to 80%,"IC50 (CYP2D6; 2D6 IC50, CYP2D6 inhibition): 3 µM; HLM ([1]; human liver microsomes): 32 µL/min/mg; IC50 [2, 12]: 0.017 µM; IC50 [3, 13]: 0.006 µM; RLM ([4]; rat liver microsomes): 92 µL/min/mg"
CC(C)(C)Cc1cnc2c(c1)[C@@H](NC[C@@H](O)[C@H](Cc1ccc3c(c1)OCO3)NC(=O)C1CCS(=O)(=O)C1)CC1(CCC1)O2 (stereo partly shown) [compound 779],3.9 µM,36 µL/min/mg,0.057 µM,100 nM,66 µL/min/mg,,"IC50 [3, 7]: 0.075 µM"
COCC(=O)N[C@@H](Cc1cc(F)cc(-c2nccs2)c1)C(=O)CN[C@H]1CC2(CCC2)Oc2ncc(CC(C)C)cc21 [compound 918],,116 µL/min/mg,0.0164 µM,100 nM,128 µL/min/mg,,"IC50 (CYP2D6; [10]): 0.5 µM; IC50 [3, 11]: > 10 µM"
COCC(=O)N[C@@H](Cc1cc(F)cc(F)c1)[C@H](O)CN[C@H]1CC2(CCC2)Oc2c1cc(CC(C)(C)C)nc2-c1ccc2c(c1)OCO2 [compound 629],,,,1200 nM,,,"IC50 (CYP2D6; 2D6 IC50, CYP2D6 inhibition): ≥ 27 µM; HLM ([1]; human liver microsomes): 171 µL/min/mg; IC50 [2, 12]: 0.009 µM; IC50 [3, 13]: 0.121 µM; RLM ([4]; rat liver microsomes): 209 µL/min/mg"
CCOCC(=O)N[C@@H](Cc1cccc(-c2ncco2)c1)[C@H](O)CN[C@H]1CC2(CCC2)Oc2ncc(CC(C)(C)C)cc21 [compound 901],,74 µL/min/mg,0.01 µM,≥ 27000 nM,62 µL/min/mg,,"IC50 (CYP2D6; [10]): 24.8 µM; IC50 [3, 11]: 0.032 µM"
CC(=O)N[C@@H](C[C@H]1CCOC1)[C@H](O)CN[C@H]1CC2(CCC2)Oc2ncc(CC(C)(C)C)cc21 [compound 469],,60 µL/min/mg,,16400 nM,35 µL/min/mg,,"IC50 (CYP2D6; [10]): ≥ 27 µM; IC50 ([2]; Table 2, read-out: BACE1 FRET assay): 0.137 µM; IC50 ([3]; HEK293, Table 2, HEK cells, read-out: HEK cell assay): 0.162 µM"
COCC(=O)N[C@@H](Cc1cc(F)cc(Cl)c1)[C@H](O)CN[C@H]1CC2(CCC2)Oc2ncc(CC(C)(F)F)cc21 [compound 799],4.95 µM,663 µL/min/mg,0.008 µM,500 nM,236.5 µL/min/mg,,"IC50 [3, 7]: 0.019 µM"
"CO[C@H](C)C(=O)N[C@@H](Cc1ccc2c(c1)OCO2)[C@H](O)CN[C@H]1CC2(CCC2)Oc2c1cc(CC(C)C)nc2Cl [compound 657, (2R)-N-((1S,2R)-1-(1,3-benzodioxol-5-ylmethyl)-3-(((4′S)-8′-chloro-6′-(2-methylpropyl)-3′,4′-dihydrospiro[cyclobutane-1,2′-pyrano[2,3-c]pyridin]-4′-yl)amino)-2-hydroxypropyl)-2-methoxypropanamide]",,,,160 nM,,,"IC50 (CYP2D6; 2D6 IC50, CYP2D6 inhibition): 5.3 µM; HLM ([1]; human liver microsomes): 96 µL/min/mg; IC50 [2, 12]: 0.03 µM; IC50 [3, 13]: 0.524 µM; RLM ([4]; rat liver microsomes): 178 µL/min/mg"
COCC(=O)N[C@@H](Cc1cc(F)cc(F)c1)[C@H](O)CN[C@H]1CC2(CCC2)Oc2c(-c3cncn3C)cc(CC(C)C)cc21 [compound 631],,,,100 nM,,,"IC50 (CYP2D6; 2D6 IC50, CYP2D6 inhibition): 3.9 µM; HLM ([1]; human liver microsomes): 36 µL/min/mg; IC50 [2, 12]: 0.019 µM; IC50 [3, 13]: 0.004 µM; RLM ([4]; rat liver microsomes): 209 µL/min/mg"
CC(=O)N[C@@H](Cc1ccc(F)cc1)[C@H](O)CN[C@H]1CC2(CCNC2)Oc2cnc(CC(C)(C)C)cc21 (stereo partly shown) [compound 702],,,,1800 nM,,,"IC50 (CYP2D6; 2D6 IC50 (uM), CYP2D6 inhibition): 13.5 µM; HLM ([1]; human liver microsomes): 14 µL/min/mg; IC50 ([2]; BACE enzyme assay IC50, read-out: BACE1 FRET assay): 36.4 µM; IC50 ([3]; HEK293, HEK cell-based assay IC50, read-out: HEK cell assay): 0.454 µM; RLM ([4]; rat liver microsomes): 26 µL/min/mg"
COCC(=O)N[C@@H](Cc1ccccc1)[C@H](O)CN[C@H]1CC2(CCC2)Oc2c(Br)cc(CC(C)C)cc21 [compound 544],7 µM,399 µL/min/mg,,1800 nM,662 µL/min/mg,,"IC50 [2, 14]: 0.005 µM; IC50 [3, 15]: 0.937 µM"
Cc1nc(CN2CCO[C@@H](C(=O)N[C@@H](Cc3ccc(F)cc3)[C@H](O)CN[C@H]3CC4(CCC4)Oc4ncc(CC(C)(C)C)cc43)C2)cs1 [compound 755],3.3 µM,522 µL/min/mg,0.012 µM,300 nM,191 µL/min/mg,,"IC50 [3, 7]: 0.007 µM"
COCC(=O)N[C@@H](Cc1cccc(F)c1)[C@H](O)CN[C@H]1CC2(CCC2)Oc2c1cc(CC(C)(C)C)cc2-n1ccnc1 [compound 505],1.9 µM,51.5 µL/min/mg,,100 nM,153 µL/min/mg,,"IC50 [2, 14]: 0.019 µM; IC50 [3, 15]: 0.006 µM"
